Data on 8 compounds can be found in PubChem BioAssay AID652005 (Sanford-Burnham Center for Chemical Genomics, 2013).

Calls of active or inactive are those of the source. The rule behind the calls is not given here.

Sequence of Low molecular weight phosphotyrosine protein phosphatase (Homo sapiens) (P24666 whole entry, looked up): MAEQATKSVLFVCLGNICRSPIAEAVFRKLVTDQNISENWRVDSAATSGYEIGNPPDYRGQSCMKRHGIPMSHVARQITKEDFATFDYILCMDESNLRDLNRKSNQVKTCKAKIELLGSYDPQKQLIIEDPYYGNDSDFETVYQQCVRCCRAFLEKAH

This assay addresses Low molecular weight phosphotyrosine protein phosphatase (Homo sapiens) (UniProt P24666). Briefly: LMPTP phosphatase inhibitors, dose response, orthogonal assay, biochemical, absorbance (AID 652005). To be noted: recombinant LMPTP, absorbance-based phosphatase activity.
Regarding `O=C(NCc1ccc2c(c1)OCO2)c1c(O)nc2sccn2c1=O`, the IC50 was > 80 µM (inactive).

Take `CC(C1SC(=S)NC1=O)C1SC(=S)NC1=O` (stereo not drawn): the IC50 was > 80 µM (inactive).

On to `Cc1csc2nc(O)c(C(=O)NCc3ccc4c(c3)OCO4)c(=O)n12`, for which the IC50 was > 80 µM (inactive).

For `O=c1[nH]c2ccccc2n1C1CCN(Cc2ccc(-c3[nH]c4cc5ncnc5cc4nc3-c3ccccc3)cc2)CC1`, the IC50 is > 80 µM (inactive).

In the case of `CCc1ccc(C=C2SC(=S)N(CCCC(=O)Nc3ccc(C(=O)O)cc3)C2=O)cc1`, the IC50 is > 80 µM (inactive).

Consider `CCN(c1ccccc1)S(=O)(=O)c1cc(C(=O)O)ccc1C`, for which the IC50 entry was “inactive”.

For the compound `O=C(/C=C/c1ccc(Cl)cc1)NC(=S)Nc1ccc(C(=O)O)cc1`, the IC50 is 15 µM.

In the case of `O=C(N=Nc1c(O)[nH]c2ccc(F)cc12)c1ccc(NS(=O)(=O)c2cccs2)cc1`, the IC50 was > 80 µM (inactive).
